Laboratory results as given in PubChem BioAssay AID1259407 (Chemical Carcinogenesis Research Information System (CCRIS), 2018).
The source made the active and inactive calls. How the calls were made is not given here.

Test system: CCRIS mutagenicity, Ames/micronucleus/aberration tests
Assay: CCRIS mutagenicity studies

CC1CCCO1 (centres undefined)
mutagenic call (Test System: AMES SALMONELLA TYPHIMURIUM, Strain/Indicator: TA98, Metabolic Activation: HAMSTER LIVER S-9, AROCLOR 1254, Method: STANDARD PLATE): inactive; negative | mutagenic call (Test System: AMES SALMONELLA TYPHIMURIUM, Strain/Indicator: TA98, Metabolic Activation: NONE, Method: STANDARD PLATE): inactive; negative | mutagenic call (Test System: AMES SALMONELLA TYPHIMURIUM, Strain/Indicator: TA98, Metabolic Activation: RAT LIVER S-9, AROCLOR 1254, Method: STANDARD PLATE): inactive; negative | mutagenic call (Test System: AMES SALMONELLA TYPHIMURIUM, Strain/Indicator: TA100, Metabolic Activation: HAMSTER LIVER S-9, AROCLOR 1254, Method: STANDARD PLATE): inactive; negative | mutagenic call (Test System: AMES SALMONELLA TYPHIMURIUM, Strain/Indicator: TA100, Metabolic Activation: NONE, Method: STANDARD PLATE): inactive; negative | mutagenic call (Test System: AMES SALMONELLA TYPHIMURIUM, Strain/Indicator: TA100, Metabolic Activation: RAT LIVER S-9, AROCLOR 1254, Method: STANDARD PLATE): inactive; negative | mutagenic call (Test System: AMES SALMONELLA TYPHIMURIUM, Strain/Indicator: TA102, Metabolic Activation: HAMSTER LIVER S-9, AROCLOR 1254, Method: STANDARD PLATE): inactive; negative | mutagenic call (Test System: AMES SALMONELLA TYPHIMURIUM, Strain/Indicator: TA102, Metabolic Activation: NONE, Method: STANDARD PLATE): inactive; negative | mutagenic call (Test System: AMES SALMONELLA TYPHIMURIUM, Strain/Indicator: TA102, Metabolic Activation: RAT LIVER S-9, AROCLOR 1254, Method: STANDARD PLATE): inactive; negative | mutagenic call (Test System: AMES SALMONELLA TYPHIMURIUM, Strain/Indicator: TA1535, Metabolic Activation: HAMSTER LIVER S-9, AROCLOR 1254, Method: STANDARD PLATE): inactive; negative | mutagenic call (Test System: AMES SALMONELLA TYPHIMURIUM, Strain/Indicator: TA1535, Metabolic Activation: NONE, Method: STANDARD PLATE): inactive; negative | mutagenic call (Test System: AMES SALMONELLA TYPHIMURIUM, Strain/Indicator: TA1535, Metabolic Activation: RAT LIVER S-9, AROCLOR 1254, Method: STANDARD PLATE): inactive; negative | mutagenic call (Test System: AMES SALMONELLA TYPHIMURIUM, Strain/Indicator: TA1537, Metabolic Activation: HAMSTER LIVER S-9, AROCLOR 1254, Method: STANDARD PLATE): inactive; negative | mutagenic call (Test System: AMES SALMONELLA TYPHIMURIUM, Strain/Indicator: TA1537, Metabolic Activation: NONE, Method: STANDARD PLATE): inactive; negative | mutagenic call (Test System: AMES SALMONELLA TYPHIMURIUM, Strain/Indicator: TA1537, Metabolic Activation: RAT LIVER S-9, AROCLOR 1254, Method: STANDARD PLATE): inactive; negative | mutagenic call (Test System: Mouse lymphoma, Strain/Indicator: L5178Y (tk+/tk-), Metabolic Activation: None, Method: Suspension/plate): inactive; negative | mutagenic call (Test System: Mouse lymphoma, Strain/Indicator: L5178Y (tk+/tk-), Metabolic Activation: Rat, Liver, S-9, Aroclor 1254, Method: Suspension/plate): inactive; inconclusive (previous evaluation negative)

C=CC(=O)OCCOC1CC2CC1C1CC=CC21 (centres undefined)
mutagenic call (Test System: MOUSE LYMPHOMA, Strain/Indicator: L5178Y (TK+/TK-), Metabolic Activation: NONE, Method: SUSPENSION/PLATE): active; positive

O[C@@H]1c2cccc3ccc4cc5ccccc5c(c4c23)[C@H]1O
mutagenic call (Test System: CHINESE HAMSTER V-79, Strain/Indicator: V-79/8-AZAGUANINE, Metabolic Activation: NONE, Method: STANDARD PLATE): active; positive
